According to patent US5041567A, “Antibacterial monic acid derivatives” (Beecham Group plc, priority 1982, dated 1991):
Converted amounts (≈) assume the structure as drawn. Where two headings read alike, the source gives them in different places.

Legend:
[1] = test system: Staph. aureus B4 (pen. resistant); experiment: MIC against veterinary bacteria in vitro; conditions: Staphylococcus aureus, 18 h
Description: (§1) The activity of the compounds of the Examples against various veterinarily important bacteria, was assayed in vitro using two-fold serial dilutions in Diagnostic Sensitivity Test Agar inoculated with 10^4 organisms.

M. suipneumoniae UCD 1 = experiment: MIC against mycoplasma in vitro; format: cell-based; conditions: Mesomycoplasma hyopneumoniae, UCD1, 144 h
[2] = test system: Erysipelothrix rhusiopathiae NCTC 8163; experiment: MIC against veterinary bacteria in vitro; conditions: Erysipelothrix rhusiopathiae, NCTC8163, 18 h
Description: as §1

K. aerogenes A = experiment: MIC against human bacteria in vitro; format: cell-based; conditions: Klebsiella aerogenes; K. aerogenes A; 5% chocolated horse blood agar, 18 hours; read-out: MIC
[3] = test system: M. suipneumoniae NCTC 10110; experiment: MIC against mycoplasma in vitro; format: cell-based; conditions: Mesomycoplasma hyopneumoniae, NCTC10110, 144 h
Strep. dysgalactiae SPD1 = experiment: MIC against veterinary bacteria in vitro; conditions: Streptococcus dysgalactiae, SPD1, 18 h
Description: as §1

M. gallisepticum S6 = experiment: MIC against mycoplasma in vitro; format: cell-based; conditions: Mycoplasmoides gallisepticum, 144 h; M. gallisepticum S6; 6 days, 37° C.; read-out: MIC
M. bovis NCTC 10131 = experiment: microbe, parasite or virus in culture; format: cell-based; conditions: NCTC10131, 144 h
Staph. aureus W2827 = experiment: MIC against human bacteria in vitro; format: cell-based; conditions: Staphylococcus aureus; Staph. aureus W2827; 5% chocolated horse blood agar, 18 hours; read-out: MIC
M. hyorhinis ATCC 25021 = experiment: MIC against mycoplasma in vitro; format: cell-based; conditions: Mesomycoplasma hyorhinis, ATCC25021, 144 h
Strep. faecalis I = experiment: MIC against human bacteria in vitro; format: cell-based; conditions: Enterococcus faecalis; Strep. faecalis I; 5% chocolated horse blood agar, 18 hours; read-out: MIC
Staph. aureus Oxford [4] = experiment: MIC against veterinary bacteria in vitro; conditions: Staphylococcus aureus, 18 h
Description: as §1

[5] = test system: Strep. suis (group D) SPS11; experiment: MIC against veterinary bacteria in vitro; conditions: Streptococcus suis, 18 h
Description: as §1

P. mirabilis 889 = experiment: MIC against human bacteria in vitro; format: cell-based; conditions: Proteus mirabilis; P. mirabilis 889; 5% chocolated horse blood agar, 18 hours; read-out: MIC
Strep. agalactiae 2788-B = experiment: MIC against human bacteria in vitro; format: cell-based; conditions: Streptococcus agalactiae; Strep. agalactiae 2788-B; 5% chocolated horse blood agar, 18 hours; read-out: MIC
[6] = test system: M. bovigenitalium ATCC 14173; experiment: MIC against mycoplasma in vitro; format: cell-based; conditions: 144 h
[7] = test system: M. suipneumoniae PW/C/210; experiment: MIC against mycoplasma in vitro; format: cell-based; conditions: Mesomycoplasma hyopneumoniae, 144 h
M. hyorhinis ATCC 23234 = experiment: MIC against mycoplasma in vitro; format: cell-based; conditions: Mesomycoplasma hyorhinis, ATCC23234, 144 h
[8] = test system: Pasteurella multocida 1633; experiment: MIC against human bacteria in vitro; format: cell-based; conditions: Pasteurella multocida 1633; 5% chocolated horse blood agar, 18 hours; read-out: MIC
Past. multocida PA2 = experiment: MIC against veterinary bacteria in vitro; conditions: Pasteurella multocida, PA2, 18 h
Description: as §1

M. suipneumoniae Str. 11 = experiment: MIC against mycoplasma in vitro; format: cell-based; conditions: Mesomycoplasma hyopneumoniae
Bord. bronchiseptica B08 = experiment: MIC against veterinary bacteria in vitro; conditions: Bordetella bronchiseptica, B08, 18 h
Description: as §1

[9] = test system: Staph. aureus 152 (pen. sens); experiment: MIC against veterinary bacteria in vitro; conditions: Staphylococcus aureus, 18 h
Description: as §1

Staph. aureus Oxford [10] = experiment: MIC against human bacteria in vitro; format: cell-based; conditions: Staphylococcus aureus; Staph. aureus Oxford; 5% chocolated horse blood agar, 18 hours; read-out: MIC
[11] = test system: Corynebacterium pyogenes CY1; experiment: MIC against veterinary bacteria in vitro; conditions: CY1, 18 h
Description: as §1

Sarcina lutea 8340 = experiment: MIC against human bacteria in vitro; format: cell-based; conditions: Micrococcus luteus; Sarcina lutea 8340; 5% chocolated horse blood agar, 18 hours; read-out: MIC
[12] = test system: M. suipneumoniae J2206/183^b; experiment: MIC against mycoplasma in vitro; format: cell-based; conditions: Mesomycoplasma hyopneumoniae, 144 h
M. suipneumoniae NB12 = experiment: MIC against mycoplasma in vitro; format: cell-based; conditions: Mesomycoplasma hyopneumoniae
M. suipneumoniae MS 16 = experiment: MIC against mycoplasma in vitro; format: cell-based; conditions: Mesomycoplasma hyopneumoniae, MS16, 144 h
M. dispar NCTC 10125 = experiment: MIC against mycoplasma in vitro; format: cell-based; conditions: 144 h
M. suipneumoniae TAM 6N = experiment: MIC against mycoplasma in vitro; format: cell-based; conditions: Mesomycoplasma hyopneumoniae, TAM6N, 144 h
Strep. pneumoniae CN33 = experiment: MIC against human bacteria in vitro; format: cell-based; conditions: Streptococcus pneumoniae; Strep. pneumoniae CN33; 5% chocolated horse blood agar, 18 hours; read-out: MIC
M. suipneumoniae HK(2) = experiment: MIC against mycoplasma in vitro; format: cell-based; conditions: Mesomycoplasma hyopneumoniae, 144 h
M. suipneumoniae JF 435 = experiment: MIC against mycoplasma in vitro; format: cell-based; conditions: Mesomycoplasma hyopneumoniae, JF435, 144 h
S. typhimurium S18 = experiment: MIC against veterinary bacteria in vitro; conditions: Salmonella enterica, TYPHIMURIUM, 18 h
Description: as §1

[13] = M. suipneumoniae UCD 1, 6 days, 37° C., read-out: MIC
[14] = M. suipneumoniae NCTC 10110, 6 days, 37° C., read-out: MIC
[15] = M. suipneumoniae PW/C/210, 6 days, 37° C., read-out: MIC
[16] = 144 h, M. suipneumoniae Str. 11, 6 days, 37° C., read-out: MIC
[17] = M. suipneumoniae J2206/183^b, 6 days, 37° C., read-out: MIC
[18] = 144 h, M. suipneumoniae NB12, Friis broth, 0.9% agarose, 6 days, 37° C., read-out: MIC
[19] = M. suipneumoniae MS 16, 6 days, 37° C., read-out: MIC
[20] = M. dispar NCTC 10125, 6 days, 37° C., read-out: MIC
[21] = M. suipneumoniae TAM 6N, 6 days, 37° C., read-out: MIC
[22] = M. suipneumoniae HK(2), 6 days, 37° C., read-out: MIC
[23] = M. suipneumoniae JF 435, 6 days, 37° C., read-out: MIC

Row | SMILES | MIC [1] [µg/mL] | MIC [2] [µg/mL] | MIC (K. aerogenes A) [µg/mL] | MIC (Strep. dysgalactiae SPD1) [µg/mL] | MIC (M. gallisepticum S6) [µg/mL] | MIC (M. bovis NCTC 10131) [µg/mL] | MIC (Staph. aureus W2827) [µg/mL] | MIC (Strep. faecalis I) [µg/mL] | MIC (Staph. aureus Oxford [4]) [µg/mL] | MIC [5] [µg/mL] | MIC (P. mirabilis 889) [µg/mL] | MIC (Strep. agalactiae 2788-B) [µg/mL] | MIC [8] [µg/mL] | MIC (Past. multocida PA2) [µg/mL] | MIC (Bord. bronchiseptica B08) [µg/mL] | MIC [9] [µg/mL] | MIC (Staph. aureus Oxford [10]) [µg/mL] | MIC [11] [µg/mL] | MIC (Sarcina lutea 8340) [µg/mL] | MIC (Strep. pneumoniae CN33) [µg/mL] | also measured
1 | C/C(=C\c1ncc(CCCCCCCC(=O)O)o1)C[C@@H]1OC[C@H](C[C@@H]2O[C@H]2[C@@H](C)[C@H](C)O)[C@@H](O)[C@H]1O [Example 12, Sodium 8-[2-(1-normon-2-yl)-5-oxazolyl]-octanoate A] | 2.5 | > 40 | > 16 | 0.625 | > 10 | 0.05 | 8 | > 16 | 0.625 | 20 | > 16 | 16 | 4 | 0.156 | > 40 | 0.625 | 8 | > 40 | > 16 | 16 | MIC (M. suipneumoniae UCD 1; [13]): > 10 µg/mL; MIC [3, 14]: > 10 µg/mL; MIC (M. hyorhinis ATCC 25021; M. hyorhinis ATCC 25021, 6 days, 37° C., read-out: MIC): 5 µg/mL; MIC ([6]; M. bovigenitalium ATCC 14173, 6 days, 37° C., read-out: MIC): 1 µg/mL; MIC [7, 15]: 10 µg/mL; MIC (M. hyorhinis ATCC 23234; M. hyorhinis ATCC 23234, 6 days, 37° C., read-out: MIC): 5 µg/mL; MIC (M. suipneumoniae Str. 11; [16]): 10 µg/mL; MIC [12, 17]: > 10 µg/mL; MIC (M. suipneumoniae NB12; [18]): > 10 µg/mL; MIC (M. suipneumoniae MS 16; [19]): 10 µg/mL; MIC (M. dispar NCTC 10125; [20]): 5 µg/mL; MIC (M. suipneumoniae TAM 6N; [21]): > 10 µg/mL; MIC (M. suipneumoniae HK(2); [22]): > 10 µg/mL; MIC (M. suipneumoniae JF 435; [23]): > 10 µg/mL; MIC (S. typhimurium S18): > 40 µg/mL
2 | C/C(=C\c1ncc(-c2ccc(CO)cc2)o1)C[C@@H]1OC[C@H](C[C@@H]2O[C@H]2[C@@H](C)[C@H](C)O)[C@@H](O)[C@H]1O [Example 13, 5-p-Hydroxymethylphenyl-2-(1-normon-2-yl) oxazole A] | 1.25 (≈ 2.64 µM) | > 80 | > 128 | 0.625 (≈ 1.32 µM) | 0.5 (≈ 1.06 µM) | ≤ 0.01 | 4 (≈ 8.45 µM) | > 128 | 1.25 (≈ 2.64 µM) | 10 (≈ 21.1 µM) | > 128 | 2 (≈ 4.22 µM) | 2 (≈ 4.22 µM) | 0.312 (≈ 0.659 µM) | > 80 | 1.25 (≈ 2.64 µM) | 4 (≈ 8.45 µM) | > 80 | 128 (≈ 270 µM) | 4 (≈ 8.45 µM) | MIC (M. suipneumoniae UCD 1; [13]): 0.25 µg/mL (≈ 0.528 µM); MIC [3, 14]: 0.25 µg/mL (≈ 0.528 µM); MIC (M. hyorhinis ATCC 25021): 0.1 µg/mL (≈ 0.211 µM); MIC [6]: 0.025 µg/mL (≈ 0.0528 µM); MIC [7, 15]: 0.1 µg/mL (≈ 0.211 µM); MIC (M. hyorhinis ATCC 23234): 0.1 µg/mL (≈ 0.211 µM); MIC (M. suipneumoniae Str. 11; [16]): 0.1 µg/mL (≈ 0.211 µM); MIC [12, 17]: 0.25 µg/mL (≈ 0.528 µM); MIC (M. suipneumoniae NB12; [18]): 0.1 µg/mL (≈ 0.211 µM); MIC (M. suipneumoniae MS 16; [19]): 0.1 µg/mL (≈ 0.211 µM); MIC (M. dispar NCTC 10125): 0.05 µg/mL (≈ 0.106 µM); MIC (M. suipneumoniae TAM 6N; [21]): 0.25 µg/mL (≈ 0.528 µM); MIC (M. suipneumoniae HK(2); [22]): 0.25 µg/mL (≈ 0.528 µM); MIC (M. suipneumoniae JF 435; [23]): 0.25 µg/mL (≈ 0.528 µM); MIC (S. typhimurium S18): > 80 µg/mL
3 | C/C(=C\c1ncc(C)o1)C[C@@H]1OC[C@H](C[C@@H]2O[C@H]2[C@@H](C)[C@H](C)O)[C@@H](O)[C@H]1O [Example 14, 5-Methyl-2-(1-normon-2-yl) oxazole A] | 10 (≈ 26.2 µM) | > 80 | > 128 | 2.5 (≈ 6.55 µM) | > 10 | 0.05 (≈ 0.131 µM) | 16 (≈ 41.9 µM) | > 128 | 10 (≈ 26.2 µM) | > 80 | > 128 | 32 (≈ 83.9 µM) | 16 (≈ 41.9 µM) | 10 (≈ 26.2 µM) | > 80 | 10 (≈ 26.2 µM) | 16 (≈ 41.9 µM) | > 80 | > 128 | 32 (≈ 83.9 µM) | MIC (M. suipneumoniae UCD 1): 5 µg/mL (≈ 13.1 µM); MIC [3]: 5 µg/mL (≈ 13.1 µM); MIC (M. hyorhinis ATCC 25021): 2.5 µg/mL (≈ 6.55 µM); MIC [6]: 0.1 µg/mL (≈ 0.262 µM); MIC [7]: 2.5 µg/mL (≈ 6.55 µM); MIC (M. hyorhinis ATCC 23234): 2.5 µg/mL (≈ 6.55 µM); MIC (M. suipneumoniae Str. 11; STR.11, 144 h): 2.5 µg/mL (≈ 6.55 µM); MIC [12]: 5 µg/mL (≈ 13.1 µM); MIC (M. suipneumoniae NB12; NB12, 144 h): 5 µg/mL (≈ 13.1 µM); MIC (M. suipneumoniae MS 16): 2.5 µg/mL (≈ 6.55 µM); MIC (M. dispar NCTC 10125; [20]): 0.5 µg/mL (≈ 1.31 µM); MIC (M. suipneumoniae TAM 6N): 5 µg/mL (≈ 13.1 µM); MIC (M. suipneumoniae HK(2)): 5 µg/mL (≈ 13.1 µM); MIC (M. suipneumoniae JF 435): 5 µg/mL (≈ 13.1 µM); MIC (S. typhimurium S18): > 80 µg/mL
